Source: patent US6552197B2, “Condensed-hexacyclic compounds and a process therefor” (Daiichi Pharmaceutical Co., Ltd., priority 1995, dated 2003)

Key:
[1] = Hygroscopicity test (weight changes due to moisture absorption); type: physicochemical; details: exposed to humidity of 83% and 93% at 25° C. over 5 days; FIG. 1
Experimental: A hygroscopicity test was conducted on (lS,9S)-1-amino-9-ethyl-5-fluoro-2,3-dihydro-9-hydroxy-4-methyl-1H,12H-benzo[de]pyrano[3′,4′:6,7]indolizino[1,2-b]-quinoline-10,13(9H,15H)-dione•methanesulfonate•dihydrate according to the present invention and (1S,9S)-1-amino-9-ethyl-5-fluoro-2,3-dihydro-9-hydroxy-4-methyl-1H,12H-benzo[de]pyrano[3′,4′:6,7]indolizino[1,2-b]-quinoline-10,13(9H,15H)-dione-hydrochloride (control product).
Described specifically, each salt was exposed to high-humidity conditions of 83% and 93% at 25° C. Over a period of 5 days, its weight changes were investigated.

[2] = Color change on storage at high relative humidity, measured by a color difference meter; type: physicochemical; details: for color change observed on stored sample: stored at a high relative humidity
Experimental: The control product was stored at a relative humidity of 93% and the degree of a color change was measured.

[3] = stored for 0 month, relative humidity 93%
[4] = stored for 1 month, 25° C., relative humidity 93%
[5] = stored for 2 months, 25° C., relative humidity 93%

Structure (SMILES)	weight changes due to moisture absorption (hygroscopicity) [1]	color change observed on stored sample [2]	decomposition by moisture absorption (conclusion from color change) ([2]; stored at 25° C., relative humidity 93%)	Color [2, 3]	Lab (chromaticity, brightness) [2, 3]	Color [2, 4]	Lab (chromaticity, brightness) [2, 4]	ΔE(H) (degree of a color difference) [2, 4]	Color [2, 5]	Lab (chromaticity, brightness) [2, 5]	ΔE(H) (degree of a color difference) [2, 5]
CC[C@@]1(O)C(=O)OCc2c1cc1n(c2=O)Cc2c-1nc1cc(F)c(C)c3c1c2[C@@H](N)CC3 [methanesulfonate, (1S,9S)-1-Amino-9-ethyl-5-fluoro-2,3-dihydro-9-hydroxy-4-methyl-1H,12H-benzo[de]pyrano[3′,4′:6,7]-indolizino[1,2-b]quinoline-10,13(9H,15H)-dione•methanesulfonate•dihydrate]	a gradual and small change	No color change									
CC[C@@]1(O)C(=O)OCc2c1cc1n(c2=O)Cc2c-1nc1cc(F)c(C)c3c1c2[C@@H](N)CC3.Cl [control product, (1S,9S)-1-amino-9-ethyl-5-fluoro-2,3-dihydro-9-hydroxy-4-methyl-1H,12H-benzo[de]pyrano[3′,4′:6,7]indolizino[1,2-b]-quinoline-10,13(9H,15H)-dione-hydrochloride]	high hygroscopicity and a fast weight change due to hygroscopicity	color change (yellowish brown—brown; originally: yellow) was observed	decomposes by moisture absorption	Yellow	81.68-81.69	brown-yellow	74.96-75.23	7.16-7.38	brown-yellow	62.65-67.43	14.53-19.24
